Source: patent US11207325B2, “Triazolopyrimidine compounds and uses thereof” (Novartis AG, priority 2014, dated 2021)

System: H3K27 methylation in G401 cell
Assay: ELISA (H3K27 methylation) assay
Format: cell-based
Details: Homo sapiens, G-401; ELISA Qualified assay (H3K27 methylation); read-out: (c) IC50 (μM), ELISA Qualified
From the text: ELISA (H3K27 Methylation) Assay

| Structure (SMILES) | IC50 |
| --- | --- |
| COc1ccc(-c2cnc(NCc3c(F)ccc4c3CCO4)n3cnnc23)c(C)n1 [Example 155, N-((5-fluoro-2,3-dihydrobenzofuran-4-yl)methyl)-8-(6-methoxy-2-methylpyridin-3-yl)-[1,2,4]triazolo[4,3-c]pyrimidin-5-amine] | 0.078 µM |
| CS(=O)(=O)c1ccc(-c2cnc(NCc3cccc4c3CCO4)n3cnnc23)cn1 [Example 28, N-((2,3-dihydrobenzofuran-4-yl)methyl)-8-(6-(methylsulfonyl)pyridin-3-yl)-[1,2,4]triazolo[4,3-c]pyrimidin-5-amine] | 0.415 µM |
| Cc1nc(S(C)(=O)=O)ccc1-c1cnc(NCc2c(F)ccc3c2CCO3)n2cnnc12 [Example 139, N-((5-fluoro-2,3-dihydrobenzofuran-4-yl)methyl)-8-(2-methyl-6-(methylsulfonyl)pyridin-3-yl)-[1,2,4]triazolo[4,3-c]pyrimidin-5-amine] | 0.0016 µM |
| Cn1nccc1-c1cnc(NCc2c(F)ccc3c2CCO3)n2cnnc12 [Example 169, N-((5-fluoro-2,3-dihydrobenzofuran-4-yl)methyl)-8-(1-methyl-1H-pyrazol-5-yl)-[1,2,4]triazolo[4,3-c]pyrimidin-5-amine] | 0.0029 µM |
| Cc1ccc(-c2cnc(NCc3c(F)ccc4c3CCO4)n3cnnc23)c(C(F)F)n1 [Example 201, 8-(2-(difluoromethyl)-6-methylpyridin-3-yl)-N-((5-fluoro-2,3-dihydrobenzofuran-4-yl)methyl)-[1,2,4]triazolo[4,3-c]pyrimidin-5-amine] | 0.0036 µM |
| CN(C)CCN(C)C(=O)c1ccc(-c2cnc(NCc3cccc4c3CCO4)n3cnnc23)cn1 [Example 102, 5-(5-(((2,3-dihydrobenzofuran-4-yl)methyl)amino)-[1,2,4]triazolo[4,3-c]pyrimidin-8-yl)-N-(2-(dimethylamino)ethyl)-N-methylpicolinamide] | 0.285 µM |
| CS(=O)(=O)CCCOc1cncc(-c2cnc(NCc3cccc4c3CCO4)n3cnnc23)c1 [Example 98, N-((2,3-dihydrobenzofuran-4-yl)methyl)-8-(5-(3-(methylsulfonyl)propoxy)pyridin-3-yl)-[1,2,4]triazolo[4,3-c]pyrimidin-5-amine] | 1.42 µM |
| FC1(F)CCN(CCc2ccc(-c3cnc(NCc4cccc5c4CCO5)n4cnnc34)cn2)C1 [Example 100, 8-(6-(2-(3,3-difluoropyrrolidin-1-yl)ethyl)pyridin-3-yl)-N-((2,3-dihydrobenzofuran-4-yl)methyl)-[1,2,4]triazolo[4,3-c]pyrimidin-5-amine] | 0.181 µM |
| Cc1nn(C(C)C)c(C)c1-c1cnc(NCc2c(F)ccc3c2CCO3)n2cnnc12 [Example 151, N-((5-fluoro-2,3-dihydrobenzofuran-4-yl)methyl)-8-(1-isopropyl-3,5-dimethyl-1H-pyrazol-4-yl)-[1,2,4]triazolo[4,3-c]pyrimidin-5-amine] | 0.0086 µM |
| Cc1c(-c2cnc(NCc3c(F)ccc4c3CCO4)n3cnnc23)ccnc1CF [Example 182, N-((5-fluoro-2,3-dihydrobenzofuran-4-yl)methyl)-8-(2-(fluoromethyl)-3-methylpyridin-4-yl)-[1,2,4]triazolo[4,3-c]pyrimidin-5-amine] | 0.0025 µM |
| Cc1c(-c2cnc(NCc3c(F)ccc4c3CCO4)n3cnnc23)cnn1C [Example 172, 8-(1,5-dimethyl-1H-pyrazol-4-yl)-N-((5-fluoro-2,3-dihydrobenzofuran-4-yl)methyl)-[1,2,4]triazolo[4,3-c]pyrimidin-5-amine] | 0.0044 µM |
| CN1CCN(c2ccc(-c3cnc(NCc4cccc5c4CCO5)n4cnnc34)cn2)CC1 [Example 20, N-((2,3-dihydrobenzofuran-4-yl)methyl)-8-(6-(4-methylpiperazin-1-yl)pyridin-3-yl)-[1,2,4]triazolo[4,3-c]pyrimidin-5-amine] | 0.0783 µM |
| c1ccc(-c2cnc(NCc3cccc4c3CCO4)n3cnnc23)cc1 [Example 13, N-((2,3-dihydrobenzofuran-4-yl)methyl)-8-phenyl-[1,2,4]triazolo[4,3-c]pyrimidin-5-amine] | 0.139 µM |
| Fc1ccc2c(c1CNc1ncc(-c3ccc(Cl)cc3Cl)c3nncn13)CCO2 [Example 146, 8-(2,4-dichlorophenyl)-N-((5-fluoro-2,3-dihydrobenzofuran-4-yl)methyl)-[1,2,4]triazolo[4,3-c]pyrimidin-5-amine] | 0.0744 µM |
| Fc1ccc2c(c1CNc1ncc(-n3cccn3)c3nncn13)CCO2 [Example 237, N-((5-fluoro-2,3-dihydrobenzofuran-4-yl)methyl)-8-(1H-pyrazol-1-yl)-[1,2,4]triazolo[4,3-c]pyrimidin-5-amine] | 0.0101 µM |
| Cc1nn(C)c(C)c1-c1cnc(NCc2cccc3c2CCO3)n2cnnc12 [Example 24, N-((2,3-dihydrobenzofuran-4-yl)methyl)-8-(1,3,5-trimethyl-1H-pyrazol-4-yl)-[1,2,4]triazolo[4,3-c]pyrimidin-5-amine] | 0.162 µM |
| Fc1ccncc1-c1cnc(NCc2cccc3c2CCO3)n2cnnc12 [Example 85, N-((2,3-dihydrobenzofuran-4-yl)methyl)-8-(4-fluoropyridin-3-yl)-[1,2,4]triazolo[4,3-c]pyrimidin-5-amine] | 0.0333 µM |
| OCc1ccc(-c2cnc(NCc3c(F)ccc4c3CCO4)n3cnnc23)cn1 [Example 234, (5-(5-(((5-fluoro-2,3-dihydrobenzofuran-4-yl)methyl)amino)-[1,2,4]triazolo[4,3-c]pyrimidin-8-yl)pyridin-2-yl)methanol] | 0.0045 µM |
| Fc1ccc2c(c1CNc1ncc(-c3cccnc3F)c3nncn13)CCO2 [Example 115, N-((5-fluoro-2,3-dihydrobenzofuran-4-yl)methyl)-8-(2-fluoropyridin-3-yl)-[1,2,4]triazolo[4,3-c]pyrimidin-5-amine] | 0.0243 µM |
| CCc1cc(C)c(-c2cnc(NCc3c(F)ccc4c3CCO4)n3cnnc23)cn1 [Example 224, 8-(6-ethyl-4-methylpyridin-3-yl)-N-((5-fluoro-2,3-dihydrobenzofuran-4-yl)methyl)-[1,2,4]triazolo[4,3-c]pyrimidin-5-amine] | 0.0022 µM |
| Cc1ncccc1-c1cnc(NCc2cccc3c2CCO3)n2cnnc12 [Example 123, N-((2,3-dihydrobenzofuran-4-yl)methyl)-8-(2-methylpyridin-3-yl)-[1,2,4]triazolo[4,3-c]pyrimidin-5-amine] | 0.0197 µM |
| Fc1ccc2c(c1CNc1ncc(-c3ccnn3C3CC3)c3nncn13)CCO2 [Example 192, 8-(1-cyclopropyl-1H-pyrazol-5-yl)-N-((5-fluoro-2,3-dihydrobenzofuran-4-yl)methyl)-[1,2,4]triazolo[4,3-c]pyrimidin-5-amine] | 0.0104 µM |
| Cc1cc(C)c(-c2cnc(NCc3c(F)ccc4c3CCO4)n3cnnc23)cn1 [Example 222, 8-(4,6-dimethylpyridin-3-yl)-N-((5-fluoro-2,3-dihydrobenzofuran-4-yl)methyl)-[1,2,4]triazolo[4,3-c]pyrimidin-5-amine] | 0.0576 µM |
| Cc1cncc(-c2cnc(NCc3c(F)ccc4c3CCO4)n3cnnc23)c1 [Example 232, N-((5-fluoro-2,3-dihydrobenzofuran-4-yl)methyl)-8-(5-methylpyridin-3-yl)-[1,2,4]triazolo[4,3-c]pyrimidin-5-amine] | 0.0133 µM |
| Fc1ccc2c(c1CNc1ncc(-n3cncn3)c3nncn13)CCO2 [Example 241, N-((5-fluoro-2,3-dihydrobenzofuran-4-yl)methyl)-8-(1H-1,2,4-triazol-1-yl)-[1,2,4]triazolo[4,3-c]pyrimidin-5-amine] | 0.0284 µM |
